Earlier results, collected in patent US20020111657A1, “Method of controlling body temperature while reducing shivering” (priority 2001, published 2002).

Test system: shivering threshold
Settings: patients at normal temperature warmed until sweating then cooled until shivering; Talke, et al., Anesthesiology 87(4):835-841, 1997

Row | SMILES | effect on shivering threshold
1 | Cc1cccc([C@H](C)c2cnc[nH]2)c1C [dexmedetomidine] | able to lower the shivering threshold
2 | Clc1cccc(Cl)c1N=C1NCCN1 [clonidine] | able to lower the shivering threshold
